These results are taken from PMC8474119, “Discovery and SAR Evolution of Pyrazole Azabicyclo[3.2.1]octane Sulfonamides as a Novel Class of Non-Covalent N-Acylethanolamine-Hydrolyzing Acid Amidase (NAAA) Inhibitors for Oral Administration” (Journal of Medicinal Chemistry, 2021).

The target in experiment [1] is T1, human acid ceramidase (AC) (Homo sapiens, UniProt Q13510).
T1 construct: made in house; host or cells: HEK-293 cells stably overexpressing human AC; enzyme-enriched lysate
T1 sequence (Q13510 143-395 limits assumed): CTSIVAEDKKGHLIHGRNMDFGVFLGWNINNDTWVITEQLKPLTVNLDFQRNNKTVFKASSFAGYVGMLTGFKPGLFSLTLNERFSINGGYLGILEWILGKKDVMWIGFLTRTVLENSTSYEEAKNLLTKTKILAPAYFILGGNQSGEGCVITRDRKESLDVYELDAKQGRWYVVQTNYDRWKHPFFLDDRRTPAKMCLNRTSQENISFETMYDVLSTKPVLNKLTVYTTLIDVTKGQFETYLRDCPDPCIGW
T1 sequence (Q13510 22-142 limits assumed): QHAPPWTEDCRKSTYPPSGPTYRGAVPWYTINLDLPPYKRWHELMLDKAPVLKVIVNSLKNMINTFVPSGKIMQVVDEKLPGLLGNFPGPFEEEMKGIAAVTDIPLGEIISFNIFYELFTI
The experiment in a line: Fluorogenic human-AC assay. The format is biochemical. The procedure: Human recombinant proteins were obtained from HEK-293 stable overexpressing human NAAA, AC, and FAAH-1 cell lines, respectively. Cells were grown in Dulbecco’s modified Eagle medium (DMEM) containing 10% FBS, 1% glutamine, 1 mM sodium pyruvate, and 500 μg/mL geneticin (G418). To obtain a high-density cell proliferation, h-NAAA-HEK-293 cells were grown in BelloCell-500 bottle, a compact bioreactor. On the contrary, h-AC and h-FAAH-1-HEK-293 cells were grown in 150 mm dishes and scraped off with cold PBS 1× pH 7.4 at 80% confluence. Cell pellets were collected and stored at −80 °C until protein preparation.
HEK-293 cells stably transfected with the human NAAA or human AC coding sequences were used as the enzyme source. […] The suspension was finally centrifuged at 105,000g for 1 h at 4 °C, supernatants were collected, protein concentration was measured, and samples were aliquoted and stored at −80 °C until use.
The assay was performed in Optiplate 96-wells black plates (PerkinElmer, Massachusetts, USA) in a total reaction volume of 250 μL. h-AC protein (2 μg) was preincubated for 10 min with various concentrations of test compounds or vehicle control (DMSO 5%) in 25 mM sodium acetate buffer (pH 4.5). […] Fluorescence was measured with the EnVision 2014 Multilabel Reader (PerkinElmer, Massachusetts, USA) at an excitation/emission wavelength of 355/460 nm. […]

For experiment [2], the target named is T2, h-NAAA (Homo sapiens, UniProt Q02083).
T2 construct: made in house; host or cells: HEK-293 cells stably overexpressing human NAAA; enzyme-enriched (lysosomal) lysate
T2 sequence (Q02083 29-125 limits assumed): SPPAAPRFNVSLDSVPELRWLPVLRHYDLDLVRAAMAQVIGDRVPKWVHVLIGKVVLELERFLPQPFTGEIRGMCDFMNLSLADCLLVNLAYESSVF
T2 sequence (Q02083 126-359 limits assumed): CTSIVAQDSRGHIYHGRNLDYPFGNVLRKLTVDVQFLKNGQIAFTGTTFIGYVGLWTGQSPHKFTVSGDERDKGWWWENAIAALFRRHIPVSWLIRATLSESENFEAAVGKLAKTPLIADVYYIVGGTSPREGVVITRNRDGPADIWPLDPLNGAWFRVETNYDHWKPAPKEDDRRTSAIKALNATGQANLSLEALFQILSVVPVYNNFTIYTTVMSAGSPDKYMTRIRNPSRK
The experiment in a line: Competitive activity-based protein profiling (ABPP) with probe ARN14686. The format is binding. The procedure:
At the end of this preincubation time, the activity-based probe undec-10-ynyl-N-[(S)-2-oxoazetidin-3-yl]carbamate (ARN14686, see Figure S1, Supporting Information)[45] was added at 20 μM for 15 min or for 4 h at 37 °C. Next, click chemistry reaction was performed by adding the following reagents at the indicated final concentrations: 100 μM azide-PEG3-alexa fluor 545 (CLK-AZ109, Jena Bioscience), 1.0 mM tris(2-carboxyethyl)phosphine (TCEP) hydrochloride, 100 μM tris-[(1-benzyl-1H-1,2,3-triazol-4-yl)methyl]amine (TBTA), and 1 mM CuSO4·5H2O.[62] TBTA was first dissolved in DMSO at 83.5 mM and then diluted with four volumes of tert-butanol. The reaction was mixed by vortexing and incubated 2 h at 25 °C. Samples (10 μL) were analyzed by SDS-PAGE, and gel fluorescence was scanned at 532 nm wavelength (ChemidDoc MP, BIO-RAD).

Usually inhibition stands for the percentage by which the read-out fell short of the control. Read a high inhibition as a response far below the control. Molecule `CCOCc1cnc(O[C@H]2C[C@H]3CC[C@@H](C2)N3S(=O)(=O)c2c(C)n[nH]c2C)cn1` [Compound 50, (1R,3r,5S)-8-((3,5-Dimethyl-1H-pyrazol-4-yl)sulfonyl)-3-((5-(ethoxymethyl)pyrazin-2-yl)oxy)-8-azabicyclo[3.2.1]octane] registered an inhibition at 30 µM in experiment [1] of 34%. Also, the “effect on h-NAAA labeling by ABP ARN14686, 15 min probe incubation” value in experiment [2] (20 μM, lysosomal extracts of h-NAAA overexpressing HEK-293 cells, probe 15 min) is listed as “prevented the binding”. Besides, the “effect on h-NAAA labeling by ABP ARN14686, 4 h probe incubation” value in experiment [2] (20 μM, lysosomal extracts of h-NAAA overexpressing HEK-293 cells, probe 4 h) was “almost totally reverted”. Further, the “mode of interaction with h-NAAA” value in experiment [2] (competitive ABPP) is “non-covalent interaction with h-NAAA”.
